Measurements from the supplement of paper PMC8497498.

Experiments:
[1] = tested on: Plasmodium cynomolgi Berok K4 asexual blood stage; experiment: EC50 asexual blood stage growth
Protocol: (§1)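 The Reference Compound Library was tested by 10-point 3-fold dose response against P. cynomolgi Berok K4 asexual blood stages (SYBR proliferation assay, mefloquine background control). Culture medium contained 0.5% AlbuMAX or 20% M. fascicularis serum. P. falciparum 3D7 was tested in a 72-h SYBR Green assay with 0.5% AlbuMAX. Values are geometric mean EC50 over independent experiments; 10 uM is the top dose.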

[2] = tested on: Plasmodium falciparum 3D7 asexual blood stage; experiment: EC50 asexual blood stage growth; conditions: serum: 0.5% AlbuMAX
Protocol: as §1

[3] = serum: 20% M. fascicularis serum

## CC1CCC2C(C)C(O)OC3OC4(C)CCC1C32O4 (configuration not stated) [Deoxydihydroartemisinin]
[1]; serum: 0.5% AlbuMAX
  EC50 asexual blood stage growth: > 10000 nM
[1]; [3]
  EC50 asexual blood stage growth: > 10000 nM
[2]
  EC50 asexual blood stage growth: > 10000 nM

## C[C@H]1c2cccc(O)c2C(=O)C2=C(O)[C@]3(O)C(=O)C(C(N)=O)=C(O)[C@@H](N(C)C)C3[C@@H](O)C21 (some centres not stated) [Doxycycline]
[1]; serum: 0.5% AlbuMAX
  EC50 asexual blood stage growth: 9360 nM
[1]; [3]
  EC50 asexual blood stage growth: 8350 nM
[2]
  EC50 asexual blood stage growth: 9930 nM

## CN(C)CC1=C(CNc2ccnc3cc(Cl)ccc23)C=[C-]C1.[C-]1=CC=CC1.[Fe+2] [Ferroquine]
[1]; serum: 0.5% AlbuMAX
  EC50 asexual blood stage growth: 43.3 nM
[1]; [3]
  EC50 asexual blood stage growth: 36.2 nM
[2]
  EC50 asexual blood stage growth: 11.5 nM

## O=CN(O)CCCP(=O)(O)O [Fosmidomycin]
[1]; serum: 0.5% AlbuMAX
  EC50 asexual blood stage growth: > 10000 nM
[1]; [3]
  EC50 asexual blood stage growth: 6690 nM
[2]
  EC50 asexual blood stage growth: > 10000 nM

## N=C(N)c1ccc(-c2ccc(-c3ccc(C(=N)N)cc3)o2)cc1 [Furamidine]
[1]; serum: 0.5% AlbuMAX
  EC50 asexual blood stage growth: 4670 nM
[1]; [3]
  EC50 asexual blood stage growth: 864 nM
[2]
  EC50 asexual blood stage growth: 540 nM

## CCCCN(CCCC)CCC(O)c1cc2c(Cl)cc(Cl)cc2c2cc(C(F)(F)F)ccc12 (configuration not stated) [Halofantrine]
[1]; serum: 0.5% AlbuMAX
  EC50 asexual blood stage growth: 0.5 nM
[1]; [3]
  EC50 asexual blood stage growth: 0.5 nM
[2]
  EC50 asexual blood stage growth: 3.7 nM

## CCN(CCO)CCCC(C)Nc1ccnc2cc(Cl)ccc12 (configuration not stated) [Hydroxychloroquine]
[1]; serum: 0.5% AlbuMAX
  EC50 asexual blood stage growth: 3370 nM
[1]; [3]
  EC50 asexual blood stage growth: 209 nM
[2]
  EC50 asexual blood stage growth: 427 nM

## CC1(C)c2nc(-c3ccc(F)cc3)c(Nc3ccc(F)cc3)n2CCN1C(=O)CN [KAF-156]
[1]; serum: 0.5% AlbuMAX
  EC50 asexual blood stage growth: 3.6 nM
[1]; [3]
  EC50 asexual blood stage growth: 36.6 nM
[2]
  EC50 asexual blood stage growth: 24.4 nM

## CCCCN(CCCC)CC(O)c1cc(Cl)cc2c1-c1ccc(Cl)cc1C2=Cc1ccc(Cl)cc1 (configuration not stated) [Lumefantrine]
[1]; serum: 0.5% AlbuMAX
  EC50 asexual blood stage growth: 23.3 nM
[1]; [3]
  EC50 asexual blood stage growth: 105 nM
[2]
  EC50 asexual blood stage growth: 30.5 nM

## CC(C)(C)c1cc(O)c(CN)c(C(C)(C)C)c1.Cl [MK-4815]
[1]; serum: 0.5% AlbuMAX
  EC50 asexual blood stage growth: 49.4 nM
[1]; [3]
  EC50 asexual blood stage growth: 93.8 nM
[2]
  EC50 asexual blood stage growth: 574 nM

## CS(=O)(=O)c1ccc(-c2cnc(N)c(-c3ccc(C(F)(F)F)nc3)c2)cc1 [MMV048]
[1]; serum: 0.5% AlbuMAX
  EC50 asexual blood stage growth: 59.8 nM
[1]; [3]
  EC50 asexual blood stage growth: 49 nM
[2]
  EC50 asexual blood stage growth: 127 nM

## CN(Cc1cnc2nc(N)nc(N)c2n1)c1ccc(C(=O)N[C@@H](CCC(=O)O)C(=O)O)cc1 [Methotrexate]
[1]; serum: 0.5% AlbuMAX
  EC50 asexual blood stage growth: 232 nM
[1]; [3]
  EC50 asexual blood stage growth: 168 nM
[2]
  EC50 asexual blood stage growth: 138 nM

## CN(C)c1ccc2nc3ccc(=[N+](C)C)cc-3sc2c1 [Methylene blue]
[1]; serum: 0.5% AlbuMAX
  EC50 asexual blood stage growth: 5.4 nM
[1]; [3]
  EC50 asexual blood stage growth: 6 nM
[2]
  EC50 asexual blood stage growth: 17.8 nM

## CC(=O)N[C@@H](C(=O)O)C(C)(C)S [N-acetyl-D-penicillamine]
[1]; serum: 0.5% AlbuMAX
  EC50 asexual blood stage growth: 7560 nM
[1]; [3]
  EC50 asexual blood stage growth: > 10000 nM
[2]
  EC50 asexual blood stage growth: > 10000 nM

## CC(C)(C)NCc1cc(Nc2ccnc3cc(Cl)ccc23)c2c(c1O)CCCC2 [Naphthoquine]
[1]; serum: 0.5% AlbuMAX
  EC50 asexual blood stage growth: 23.2 nM
[1]; [3]
  EC50 asexual blood stage growth: 68.3 nM
[2]
  EC50 asexual blood stage growth: 8.7 nM

## CONC(=N)c1ccc(-c2ccc(-c3ccc(C(=N)NOC)cc3)o2)cc1 [Pafuramidine]
[1]; serum: 0.5% AlbuMAX
  EC50 asexual blood stage growth: > 10000 nM
[1]; [3]
  EC50 asexual blood stage growth: > 10000 nM
[2]
  EC50 asexual blood stage growth: > 10000 nM

## N=C(N)c1ccc(OCCCCCOc2ccc(C(=N)N)cc2)cc1 [Pentamidine]
[1]; serum: 0.5% AlbuMAX
  EC50 asexual blood stage growth: 212 nM
[1]; [3]
  EC50 asexual blood stage growth: 389 nM
[2]
  EC50 asexual blood stage growth: 139 nM

## CN(C)Cc1ccccc1CNc1ccnc2cc(Cl)ccc12 [Phenylequine]
[1]; serum: 0.5% AlbuMAX
  EC50 asexual blood stage growth: 36.6 nM
[1]; [3]
  EC50 asexual blood stage growth: 40.7 nM
[2]
  EC50 asexual blood stage growth: 7.4 nM

## Clc1ccc2c(N3CCN(CCCN4CCN(c5ccnc6cc(Cl)ccc56)CC4)CC3)ccnc2c1 [Piperaquine]
[1]; serum: 0.5% AlbuMAX
  EC50 asexual blood stage growth: 68.2 nM
[1]; [3]
  EC50 asexual blood stage growth: 35.3 nM
[2]
  EC50 asexual blood stage growth: 299 nM

## COc1cc(NC(C)CCCN)c2ncccc2c1 (configuration not stated) [Primaquine]
[1]; serum: 0.5% AlbuMAX
  EC50 asexual blood stage growth: 3100 nM
[1]; [3]
  EC50 asexual blood stage growth: 9000 nM
[2]
  EC50 asexual blood stage growth: 5750 nM

## CC(C)N=C(N)N=C(N)Nc1ccc(Cl)cc1 [Proguanil]
[1]; serum: 0.5% AlbuMAX
  EC50 asexual blood stage growth: > 10000 nM
[1]; [3]
  EC50 asexual blood stage growth: > 10000 nM
[2]
  EC50 asexual blood stage growth: 2740 nM

## CCc1nc(N)nc(N)c1-c1ccc(Cl)cc1 [Pyrimethamine]
[1]; serum: 0.5% AlbuMAX
  EC50 asexual blood stage growth: 21.8 nM
[1]; [3]
  EC50 asexual blood stage growth: 7.2 nM
[2]
  EC50 asexual blood stage growth: 36.6 nM

## C=CC1CN2CCC1CC2C(O)c1ccnc2ccc(OC)cc12 (configuration not stated) [Quinidine]
[1]; serum: 0.5% AlbuMAX
  EC50 asexual blood stage growth: 30.8 nM
[1]; [3]
  EC50 asexual blood stage growth: 18.5 nM
[2]
  EC50 asexual blood stage growth: 73.9 nM

## C=C[C@H]1C[N@@]2CC[C@H]1C[C@H]2[C@H](O)c1ccnc2ccc(OC)cc12 [Quinine]
[1]; serum: 0.5% AlbuMAX
  EC50 asexual blood stage growth: 127 nM
[1]; [3]
  EC50 asexual blood stage growth: 174 nM
[2]
  EC50 asexual blood stage growth: 184 nM

## Cc1cc2nc3c(=O)[nH]c(=O)nc-3n(CC(O)C(O)C(O)CO)c2cc1C (configuration not stated) [Riboflavin]
[1]; serum: 0.5% AlbuMAX
  EC50 asexual blood stage growth: > 10000 nM
[1]; [3]
  EC50 asexual blood stage growth: > 10000 nM
[2]
  EC50 asexual blood stage growth: > 10000 nM

## CCN(CC)CCCCCCNc1cc(OC)cc2c(C)ccnc12 [Sitamaquine]
[1]; serum: 0.5% AlbuMAX
  EC50 asexual blood stage growth: 773 nM
[1]; [3]
  EC50 asexual blood stage growth: 1050 nM
[2]
  EC50 asexual blood stage growth: 730 nM

## Nc1ccc(S(=O)(=O)Nc2ncccn2)cc1 [Sulfadiazine]
[1]; serum: 0.5% AlbuMAX
  EC50 asexual blood stage growth: > 10000 nM
[1]; [3]
  EC50 asexual blood stage growth: 8320 nM
[2]
  EC50 asexual blood stage growth: > 10000 nM

## COc1cc(C)c2c(Oc3cccc(C(F)(F)F)c3)c(OC)cc(NC(C)CCCN)c2n1 (configuration not stated) [Tafenoquine]
[1]; serum: 0.5% AlbuMAX
  EC50 asexual blood stage growth: 5290 nM
[1]; [3]
  EC50 asexual blood stage growth: > 10000 nM
[2]
  EC50 asexual blood stage growth: 5940 nM

## COc1cc(Cc2cnc(N)nc2N)cc(OC)c1OC [Trimethoprim]
[1]; serum: 0.5% AlbuMAX
  EC50 asexual blood stage growth: 794 nM
[1]; [3]
  EC50 asexual blood stage growth: 496 nM
[2]
  EC50 asexual blood stage growth: 5280 nM
